Measured values from patent US20080108645A1, “Dihydrotetrabenazines And Pharmaceutical Compositions Containing Them” (CAMBRIDGE LABORATORIES, (IRELAND), LTD., priority 2004, published 2008).

How the values were obtained:
Dopamine D3 Receptor = biological target: T1, Dopamine D3 Receptor (Homo sapiens, UniProt P35462); assay: Dopamine D3 receptor radioligand binding; conditions: 10 μM; 0.7 nM [3H] Spiperone
T1 construct: expressed in transfected cells; host or cells: CHO cells
Procedure: (a) Adrenergic α2A Receptor: • Reference: S. Uhlen et al. J. Pharmacol. Exp. Ther., 271:1558-1565 (1994) • Source: Human recombinant insect Sf9 cells • Ligand: 1 nM [^3H] […] J. Pharmacol., 99:803-809, (1990) • Source: Wistar rat cerebral cortex • Ligand: 2 nM [3H]

Male Sprague-Dawley rats = assay: Spontaneous locomotor activity in rats (sedative properties); type: in vivo, rat; conditions: for sedative effect (in words): 0.3-10 mg/kg i.p., 45 minutes and 3 hours after administration
Procedure: A study was carried out in rats to determine whether the dihydrotetrabenazine isomers of the invention have sedative properties. The effects of the isomers on spontaneous locomotor activity in rats were compared with the effects produced by tetrabenazine and haloperidol using the methods set out below.
Male Sprague-Dawley rats, (Charles River Laboratories, Saint-Germain/L'Arbresle, France), weighing 200-250 g at the beginning of the study, were used for the studies. The rats were housed, 2 or 3 per cage, in Makrolon type III cages, in a room set up with the following environmental conditions: temperature: 20±2° C., humidity: minimum 45%, air changes: >12 per hour, light/dark cycle of 12 h/12 h [on at 7:00 a.m.]. The rats were allowed to acclimatize to their conditions for at least five days before commencement of the study. The rats received food (Dietex, Vigny, France, ref. 811002) and water (tap water in water bottle) ad libitum.
Solutions of each test compound in corn oil were freshly prepared on the day of the experiment. Haloperidol was prepared in hydroxyethylcellulose, 0.5% in deionized water. Either the vehicle or the test compounds were administered as a single dose (0.3, 1, 3 and 10 mg/kg, 2 mL/kg i.p.). The reference compound haloperidol (1 mg/kg) was administered i.p. (2 mL/kg).
The animals were placed in plexiglass cages under a video camera in a room with low light intensity (maximum 50 lux). At forty five minutes and 3 hours after administration, locomotor activity was determined during 20 minute periods using a video image analyzer (Videotrack, View Point, France). Locomotor activity was recorded in the reference group (haloperidol) at 1 hour after administration. The number and duration of ambulatory movements and duration of inactivity was measured. At the end of the locomotor activity measurement (45 minutes and 3 hours), palpebral closure and arousal were be scored as follows in the plexiglass cage:
The number of occurrences and duration (in seconds) of ambulatory (large) movements and the duration of periods of inactivity (seconds) was determined during two 20 minute periods (45 minutes and 3 hours after administration) using a video image analyzer (Videotrack, ViewPoint, Lyon, France). Image tracking was performed using a video camera placed above the plexiglass cage, recording overall locomotor activity. Images recorded with the video camera were digitalized and displacement of the centre of gravity of the digital image spots was tracked and analyzed using the following method: the speed of displacement of the centre of gravity of the spot was measured and two threshold values were set to define the type of movement: threshold 1 (high speed) and threshold 2 (low speed). When the animal moved and the speed of displacement of the centre of gravity of the spot was above threshold 1, the movement was considered as an ambulatory movement.
The results were expressed as the means±SEMs of the 12 individual values. Statistical analyses were carried out using ANOVA (one way) and Dunnett's t-test and with the non parametric test of Kruskal-Wallis followed by a Mann & Whitney U-test for the sedation cotation. A p value of p<0.05 was taken as indicating significance.

in vitro = conditions: human, Caco-2, pH 7.4
Text: The assay relies on the ability of Caco-2 cells to differentiate into enterocytes when cultured on a microporous filter for a period of approximately 21 days. During the culture period, the Caco-2 cells undergo spontaneous morphological and biochemical changes, which produce a polarized monolayer with a well-defined brush border on the apical surface, as well as tight cellular junctions. Therefore, these cells may be used as an in vitro model for the analysis of drug permeability.
Absorption across the Caco-2 monolayer can be measured in two directions: apical-to-basolateral or basolateral-to-apical, by adding the compound to the apical or the basolateral chamber, respectively. At various time-points, samples are collected from the receiver-chamber for analysis for the rate of absorption as measured by the apparent permeability coefficient (Papp) across the monolayer.
The Papp value reflects a combination of the test article permeability through both transcellular (through cell membranes) and the paracellular (across the tight junctions between the cells) pathways. The relative contribution of these pathways depends upon the pKa, partition coefficient (log D), molecular radius, and charge of the test article at a given pH. Papp values can then be used to rank-order compounds for their permeability through Caco-2 monolayers.
Absorption was determined at pH 7.4 across cell monolayers in the apical-to-basolateral direction. Caco-2 cells used to estimate Papp values were grown for 26 days on Transwell inserts in 12-well plates. Monolayer integrity was verified before and after the absorption assay by the methods of transepithelial electrical resistance (Ohm-cm^2) and Lucifer Yellow.
On the day of the assay, the reference standards were diluted in Hank's balanced salt solution (HBSS), pH 7.4 to a final concentration of 50 μM. […] Dihydrotetrabenazine isomer samples were prepared at a concentration of 50 mM in DMSO. Each stock solution was further diluted in HBSS buffer (pH 7.4) to a final working concentration of 50 μM
The Caco-2 cell suspensions were prepared as follows. […] Once the cell density and viability were determined, Caco-2 cells were diluted in culture medium to a final working concentration of 2.0×10^5 cells/ml. The Caco-2 culture medium contained Dulbecco's Modified Eagle Medium, 10% fetal bovine serum, 100 μM non-essential amino acids, 100 U/ml penicillin and 100 μg/ml streptomycin.
Costar polycarbonate membranes (0.4 μm pore size) were pre-equilibrated with Caco-2 culture medium for 1 hour in a 37° C. water-jacketed incubator with 5% CO2. The content of the apical chamber was removed and replaced with 500 μl of Caco-2 cell suspension (200 000 cells/ml). Cells were further maintained in culture for 26 days in a 37° C. water-jacketed incubator with 5% CO2.
Prior to the assay, all monolayers were washed twice with HBSS and their transepithelial electrical resistance (TEER) was measured with a Millicell-ERS meter. TEER values obtained in the absence of cells were subtracted as background signal. Only monolayer with TEER values over 150 Ohm-cm^2 were used for the absorption assay experiment.
All absorption experiments were conducted in triplicate at pH 7.4. The rate of absorption of each reference standard and dihydrotetrabenazine test article was assessed in the apical-to-basolateral direction. Aliquots (100 μl) of each working solution (reference standards and test articles at 50 μM) were set aside at the beginning of the assay for the determination of the initial concentration (Co).
Absorption experiments were initiated by replacing the content of the donor chamber with 500 μl of Hanks Balanced Salt Solution containing test articles or reference compounds. Cells were returned to the CO2 incubator for the absorption assay. Samples of 100 μl were collected from the receiver and donor chambers after 1 hour and were used to determine the percentage of recovery.

Monoamine Oxidase MAO-A = biological target: T2, Monoamine Oxidase MAO-A (Homo sapiens, UniProt P21397); assay: Monoamine Oxidase MAO-A inhibition; type: biochemical; conditions: for inhibition at 10 µM: read-out: Percentage Inhibition of Enzyme Activity, MAO-A
T2 sequence (P21397 1-527): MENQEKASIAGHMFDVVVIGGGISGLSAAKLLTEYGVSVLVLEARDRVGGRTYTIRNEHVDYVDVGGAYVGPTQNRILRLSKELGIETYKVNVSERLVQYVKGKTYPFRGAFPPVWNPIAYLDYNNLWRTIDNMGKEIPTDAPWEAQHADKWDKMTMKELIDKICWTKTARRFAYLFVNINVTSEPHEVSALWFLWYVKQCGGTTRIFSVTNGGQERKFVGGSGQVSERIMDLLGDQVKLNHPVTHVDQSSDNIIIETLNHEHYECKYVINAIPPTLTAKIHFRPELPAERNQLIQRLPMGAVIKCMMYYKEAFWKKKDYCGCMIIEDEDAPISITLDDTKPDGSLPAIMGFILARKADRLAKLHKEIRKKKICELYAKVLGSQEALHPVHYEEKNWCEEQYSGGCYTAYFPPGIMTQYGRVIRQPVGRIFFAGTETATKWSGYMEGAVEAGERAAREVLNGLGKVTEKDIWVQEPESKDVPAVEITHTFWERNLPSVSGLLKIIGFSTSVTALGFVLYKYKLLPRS
Procedure: Isomers B and C were tested for their ability to inhibit enzymes involved in the processing of monoamines in the CNS, namely Catechol O-Methyl Transferase (COMT), Monoamine Oxidase A and Monoamine Oxidase B. The assay methods used are described below and the results are set out in Table 7. (a) Catechol O-Methyl Transferase (COMT) Inhibition • Source: […] None • Incubation time: 60 minutes @ 37° C. • Incubation buffer: 100 mM potassium phosphate, 10 mM MgCl2, 3 mM DTT containing 12 units/ml adenosine deaminase, pH 7.4 • Quantitation method: […]

[1] = 0.3 mg/kg i.p., 45 minutes after administration
[2] = 0.3 mg/kg i.p., 3 hours after administration
[3] = 1 mg/kg i.p., 45 minutes after administration
[4] = 1 mg/kg i.p., 3 hours after administration
[5] = 3 mg/kg i.p., 45 minutes after administration
[6] = 3 mg/kg i.p., 3 hours after administration
[7] = 10 mg/kg i.p., 45 minutes after administration
[8] = 10 mg/kg i.p., 3 hours after administration

T1 sequence (P35462 whole entry): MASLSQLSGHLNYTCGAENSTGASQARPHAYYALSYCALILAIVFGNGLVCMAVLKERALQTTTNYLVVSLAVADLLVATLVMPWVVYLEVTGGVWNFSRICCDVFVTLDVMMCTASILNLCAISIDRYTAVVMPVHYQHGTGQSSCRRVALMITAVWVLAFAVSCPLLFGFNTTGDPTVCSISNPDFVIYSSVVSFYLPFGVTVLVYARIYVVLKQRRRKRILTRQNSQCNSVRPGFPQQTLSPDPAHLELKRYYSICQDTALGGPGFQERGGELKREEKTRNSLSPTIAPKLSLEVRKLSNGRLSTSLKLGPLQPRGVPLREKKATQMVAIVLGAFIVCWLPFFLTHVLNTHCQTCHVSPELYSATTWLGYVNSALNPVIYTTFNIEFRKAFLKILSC

SMILES	Percentage Inhibition of Specific Binding, D3 Receptor (Dopamine D3 Receptor)	Inactivity Duration (Male Sprague-Dawley rats; [1])	Large movements Duration (Male Sprague-Dawley rats; [1])	Large movements Occurrence (Male Sprague-Dawley rats; [1])	Inactivity Duration (Male Sprague-Dawley rats; [2])	Large movements Duration (Male Sprague-Dawley rats; [2])	Large movements Occurrence (Male Sprague-Dawley rats; [2])	Inactivity Duration (Male Sprague-Dawley rats; [3])	Large movements Duration (Male Sprague-Dawley rats; [3])	Large movements Occurrence (Male Sprague-Dawley rats; [3])	Inactivity Duration (Male Sprague-Dawley rats; [4])	Large movements Duration (Male Sprague-Dawley rats; [4])	Large movements Occurrence (Male Sprague-Dawley rats; [4])	Inactivity Duration (Male Sprague-Dawley rats; [5])	Large movements Duration (Male Sprague-Dawley rats; [5])	Large movements Occurrence (Male Sprague-Dawley rats; [5])	Inactivity Duration (Male Sprague-Dawley rats; [6])	Large movements Duration (Male Sprague-Dawley rats; [6])	Large movements Occurrence (Male Sprague-Dawley rats; [6])	Inactivity Duration (Male Sprague-Dawley rats; [7])	also measured
COc1cc2c(cc1OC)[C@H]1C[C@H](O)[C@@H](CC(C)C)CN1CC2 (single isomer, unassigned) [Isomer B, 3,11b-cis-dihydrotetrabenazine]	7%	346.1 ± 36.9 s	72.0 ± 9.6 s	268 ± 36	566.4 ± 44.3 s	28.9 ± 9.2 s	101 ± 29	334.0 ± 23.2 s	87.0 ± 7.6 s	297 ± 22	525.8 ± 28.6 s	34.5 ± 6.2 s	125 ± 18	342.2 ± 33.3 s	89.1 ± 12.4 s	313 ± 38	530.5 ± 38.0 s	31.1 ± 6.5 s	113 ± 17	333.1 ± 26.9 s	Large movements Duration (Male Sprague-Dawley rats; [7]): 84.0 ± 11.2 s; Large movements Occurrence (Male Sprague-Dawley rats; [7]): 298 ± 37; Inactivity Duration (Male Sprague-Dawley rats; [8]): 515.0 ± 53.0 s; Large movements Duration (Male Sprague-Dawley rats; [8]): 30.9 ± 6.4 s; Large movements Occurrence (Male Sprague-Dawley rats; [8]): 120 ± 26; sedative effect (in words) (Male Sprague-Dawley rats): no sedative effects were observed; recovery at 1 h, 50 μM (in vitro): 90.1 ± 6.5%; inhibitory activity against monoamine oxidase isoform A (in words) (Monoamine Oxidase MAO-A): no inhibitory activity; inhibition at 10 µM (Monoamine Oxidase MAO-A): 3%
COc1cc2c(cc1OC)[C@H]1C[C@@H](O)[C@@H](CC(C)C)CN1CC2 (single isomer, unassigned) [Isomer C, 3,11b-cis-dihydrotetrabenazine]	9%	323.7 ± 25.6 s	79.2 ± 10.0 s	285 ± 34	519.3 ± 33.7 s	31.4 ± 6.0 s	113 ± 19	324.6 ± 38.1 s	71.8 ± 8.3 s	295 ± 30	510.2 ± 44.9 s	30.3 ± 6.5 s	128 ± 24	322.7 ± 27.8 s	84.0 ± 9.4 s	308 ± 36	493.6 ± 38.5 s	30.2 ± 5.5 s	125 ± 22	368.7 ± 30.9 s	Large movements Duration (Male Sprague-Dawley rats; [7]): 66.5 ± 9.9 s; Large movements Occurrence (Male Sprague-Dawley rats; [7]): 254 ± 32; Inactivity Duration (Male Sprague-Dawley rats; [8]): 465.7 ± 49.0 s; Large movements Duration (Male Sprague-Dawley rats; [8]): 42.7 ± 8.0 s; Large movements Occurrence (Male Sprague-Dawley rats; [8]): 164 ± 30; sedative effect (in words) (Male Sprague-Dawley rats): no sedative effects were observed; hyperlocomotor effect (in words) (Male Sprague-Dawley rats; 3 hours after administration): slight and non-significant hyperlocomotor effect; Papp A→B at 1 h, 50 μM (in vitro): 21.1 ×10⁻⁶ cm/s; recovery at 1 h, 50 μM (in vitro): 102 ± 12.4%; inhibitory activity against monoamine oxidase isoform A (in words) (Monoamine Oxidase MAO-A): no inhibitory activity; inhibition at 10 µM (Monoamine Oxidase MAO-A): 3%
